Assay results from PubChem BioAssay (NCI).
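Results reflect a 48-hour exposure of cells in 96-well plates to compound at five concentrations. TGI denotes the concentration required for complete inhibition of growth.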

Tests used:
Assay in all cases: NCI-60 cell line screen, 48 h
[1] = system: A549 NSCLC
[2] = system: OVCAR-3 ovarian
[3] = system: KM12 colon
[4] = system: HCC-2998 colon
[5] = system: UACC-257 melanoma
[6] = system: SK-MEL-5 melanoma
[7] = system: HT29 colon
[8] = system: SK-MEL-28 melanoma
[9] = system: K-562 leukemia
[10] = system: OVCAR-8 ovarian
[11] = system: RXF 393 renal
[12] = system: UACC-62 melanoma
[13] = system: IGROV1 ovarian
[14] = system: XF 498 CNS
[15] = system: M14 melanoma
[16] = system: NCI-H460 lung
[17] = system: NCI-H23 lung
[18] = system: SW-620 colon
[19] = system: UO-31 renal
[20] = system: DMS 114 small cell lung
[21] = system: HCT-116 colon
[22] = system: DLD-1 colon
[23] = system: CAKI-1 renal
[24] = system: LXFL 529 NSCLC
[25] = system: COLO 205 colon
[26] = system: SN12C renal
[27] = system: SNB-78 CNS
[28] = system: SF-268 CNS
[29] = system: LOX IMVI melanoma
[30] = system: HOP-92 NSCLC
[31] = system: U251 CNS
[32] = system: SR leukemia
[33] = system: OVCAR-4 ovarian
[34] = system: TK-10 renal
[35] = system: NCI-H522 lung
[36] = system: MALME-3M melanoma
[37] = system: RXF-631 renal
[38] = system: ACHN renal
[39] = system: OVCAR-5 ovarian
[40] = system: M19-MEL melanoma
[41] = system: SNB-75 CNS
[42] = system: SF-295 CNS
[43] = system: HOP-18 NSCLC
[44] = system: SNB-19 CNS
[45] = system: CCRF-CEM leukemia
[46] = system: MOLT-4 leukemia
[47] = system: HOP-62 NSCLC
[48] = system: HL-60(TB) leukemia
[49] = system: DMS 273 small cell lung
[50] = system: SF-539 CNS
[51] = system: 786-0 renal
[52] = system: SK-OV-3 ovarian
[53] = system: EKVX NSCLC
[54] = system: NCI-H226 lung
[55] = system: RPMI-8226 leukemia
[56] = system: KM20L2 colon
[57] = system: HCT-15 colon
[58] = system: SK-MEL-2 melanoma
[59] = system: A498 renal

## C=C(C(=C)N1N=NC2C3CCC(C3)C21)N1N=NC2C3CCC(C3)C21 (stereo not drawn)
[1]
  TGI: > 100 µM
[2]
  TGI: > 100 µM
[3]
  TGI: > 100 µM
[4]
  TGI: > 100 µM
[5]
  TGI: > 100 µM
[6]
  TGI: > 100 µM
[7]
  TGI: > 100 µM
[8]
  TGI: > 100 µM
[9]
  TGI: > 100 µM
[10]
  TGI: > 100 µM
[11]
  TGI: > 100 µM
[12]
  TGI: > 100 µM
[13]
  TGI: > 100 µM
[14]
  TGI: > 100 µM
[15]
  TGI: > 100 µM
[16]
  TGI: > 100 µM
[17]
  TGI: > 100 µM
[18]
  TGI: > 100 µM
[19]
  TGI: > 100 µM
[20]
  TGI: > 100 µM
[21]
  TGI: > 100 µM
[22]
  TGI: > 100 µM
[23]
  TGI: > 100 µM
[24]
  TGI: > 100 µM
[25]
  TGI: > 100 µM
[26]
  TGI: > 100 µM
[27]
  TGI: > 100 µM
[28]
  TGI: > 100 µM
[29]
  TGI: > 100 µM
[30]
  TGI: > 100 µM
[31]
  TGI: > 100 µM
[32]
  TGI: > 100 µM
[33]
  TGI: > 100 µM
[34]
  TGI: > 100 µM
[35]
  TGI: > 100 µM
[36]
  TGI: > 100 µM
[37]
  TGI: > 100 µM
[38]
  TGI: > 100 µM
[39]
  TGI: > 100 µM
[40]
  TGI: > 100 µM
[41]
  TGI: > 100 µM
[42]
  TGI: > 100 µM
[43]
  TGI: > 100 µM
[44]
  TGI: > 100 µM
[45]
  TGI: > 100 µM
[46]
  TGI: > 100 µM
[47]
  TGI: > 100 µM
[48]
  TGI: 54.6 µM
[49]
  TGI: > 100 µM
[50]
  TGI: > 100 µM
[51]
  TGI: > 100 µM

## Cn1c(N)nc(=O)c2c1N(C1OC(CO)C(O)C1O)CN2Cc1ccccc1 (stereo not drawn)
[52]
  TGI: > 100 µM
[1]
  TGI: > 100 µM
[2]
  TGI: > 100 µM
[3]
  TGI: > 100 µM
[4]
  TGI: > 100 µM
[53]
  TGI: > 100 µM
[54]
  TGI: > 100 µM
[5]
  TGI: > 100 µM
[6]
  TGI: > 100 µM
[7]
  TGI: > 100 µM
[9]
  TGI: > 100 µM
[10]
  TGI: > 100 µM
[11]
  TGI: > 100 µM
[12]
  TGI: > 100 µM
[55]
  TGI: > 100 µM
[13]
  TGI: > 100 µM
[14]
  TGI: > 100 µM
[15]
  TGI: > 100 µM
[16]
  TGI: > 100 µM
[17]
  TGI: > 100 µM
[18]
  TGI: > 100 µM
[56]
  TGI: > 100 µM
[19]
  TGI: > 100 µM
[20]
  TGI: > 100 µM
[21]
  TGI: > 100 µM
[22]
  TGI: > 100 µM
[23]
  TGI: > 100 µM
[24]
  TGI: > 100 µM
[25]
  TGI: > 100 µM
[26]
  TGI: > 100 µM
[27]
  TGI: > 100 µM
[28]
  TGI: > 100 µM
[57]
  TGI: > 100 µM
[30]
  TGI: > 100 µM
[31]
  TGI: > 100 µM
[32]
  TGI: > 100 µM
[33]
  TGI: > 100 µM
[34]
  TGI: > 100 µM
[35]
  TGI: > 100 µM
[36]
  TGI: > 100 µM
[37]
  TGI: > 100 µM
[38]
  TGI: > 100 µM
[39]
  TGI: > 100 µM
[40]
  TGI: > 100 µM
[58]
  TGI: > 100 µM
[41]
  TGI: > 100 µM
[42]
  TGI: > 100 µM
[43]
  TGI: > 100 µM
[59]
  TGI: > 100 µM
[44]
  TGI: > 100 µM
[46]
  TGI: > 100 µM
[47]
  TGI: > 100 µM
[48]
  TGI: > 100 µM
[49]
  TGI: > 100 µM
[50]
  TGI: > 100 µM
[51]
  TGI: > 100 µM

## Cc1cccc(C(C)(C)C)c1NC(=O)CCc1nc(=S)[nH][nH]1
[52]
  TGI: > 100 µM
[1]
  TGI: > 100 µM
[2]
  TGI: > 100 µM
[3]
  TGI: > 100 µM
[4]
  TGI: > 100 µM
[54]
  TGI: > 100 µM
[5]
  TGI: > 100 µM
[6]
  TGI: > 100 µM
[7]
  TGI: > 100 µM
[8]
  TGI: > 100 µM
[9]
  TGI: > 100 µM
[10]
  TGI: > 100 µM
[11]
  TGI: > 100 µM
[12]
  TGI: > 100 µM
[55]
  TGI: > 100 µM
[13]
  TGI: > 100 µM
[14]
  TGI: > 100 µM
[15]
  TGI: > 100 µM
[16]
  TGI: > 100 µM
[17]
  TGI: > 100 µM
[18]
  TGI: > 100 µM
[56]
  TGI: > 100 µM
[19]
  TGI: > 100 µM
[20]
  TGI: > 100 µM
[21]
  TGI: > 100 µM
[22]
  TGI: > 100 µM
[23]
  TGI: > 100 µM
[24]
  TGI: > 100 µM
[25]
  TGI: > 100 µM
[26]
  TGI: > 100 µM
[27]
  TGI: > 100 µM
[28]
  TGI: > 100 µM
[29]
  TGI: > 100 µM
[57]
  TGI: > 100 µM
[30]
  TGI: > 100 µM
[31]
  TGI: > 100 µM
[33]
  TGI: > 100 µM
[34]
  TGI: > 100 µM
[35]
  TGI: > 100 µM
[36]
  TGI: > 100 µM
[37]
  TGI: > 100 µM
[38]
  TGI: > 100 µM
[39]
  TGI: > 100 µM
[40]
  TGI: > 100 µM
[58]
  TGI: > 100 µM
[41]
  TGI: > 100 µM
[42]
  TGI: > 100 µM
[59]
  TGI: > 100 µM
[44]
  TGI: > 100 µM
[45]
  TGI: > 100 µM
[46]
  TGI: > 100 µM
[47]
  TGI: > 100 µM
[48]
  TGI: > 100 µM
[49]
  TGI: > 100 µM
[50]
  TGI: > 100 µM
[51]
  TGI: > 100 µM
